From ChEMBL document CHEMBL1201862, “PubChem BioAssay data set” (2004)
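Cultured in 96-well plates, cells were exposed to test compound for 48 hours across five concentrations. GI50 is the concentration that inhibits growth by half.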 Active and inactive are the calls of the source. Rule as the data show it: active = GI50 up to about 1.1 µM and inactive = higher.

Key:
Experiment in all cases: inhibition of tumour cell growth, NCI panel, 48 h
SR = system: SR
COLO 205 = system: COLO 205
SNB-19 = system: SNB-19
SK-MEL-28 = system: SK-MEL-28
OVCAR-5 = system: OVCAR-5
NCI-H23 = system: NCI-H23
LOX IMVI = system: LOX IMVI
RPMI-8226 = system: RPMI-8226
U-251 = system: U-251
HL-60 = system: HL-60
CAKI-1 = system: CAKI-1
SNB-75 = system: SNB-75
ACHN = system: ACHN
SF-295 = system: SF-295
HOP-62 = system: HOP-62
MDA-N = system: MDA-N
IGROV-1 = system: IGROV-1
HCC 2998 = system: HCC 2998
MCF7 = system: MCF7

Structure (SMILES) | GI50 (SR) | GI50 (COLO 205) | GI50 (SNB-19) | GI50 (SK-MEL-28) | GI50 (OVCAR-5) | GI50 (NCI-H23) | GI50 (LOX IMVI) | GI50 (RPMI-8226) | GI50 (U-251) | GI50 (HL-60) | GI50 (CAKI-1) | GI50 (SNB-75) | GI50 (ACHN) | GI50 (SF-295) | GI50 (HOP-62) | GI50 (MDA-N) | GI50 (IGROV-1) | GI50 (HCC 2998) | GI50 (MCF7)
Oc1cccc(Nc2cc(O)nc(O)n2)c1 | > 100 µM (inactive) | > 100 µM (inactive) | > 100 µM (inactive) | > 100 µM (inactive) | > 100 µM (inactive) | > 100 µM (inactive) | > 100 µM (inactive) | > 100 µM (inactive) | > 100 µM (inactive) | > 100 µM (inactive) | > 100 µM (inactive) | > 100 µM (inactive) | > 100 µM (inactive) | > 100 µM (inactive) | > 100 µM (inactive) | > 100 µM (inactive) | > 100 µM (inactive) | > 100 µM (inactive) | –
O=C(CSc1nnc(Cc2ccccc2)o1)Nc1ccccc1 | – | > 100 µM (inactive) | – | > 100 µM (inactive) | > 100 µM (inactive) | > 100 µM (inactive) | > 100 µM (inactive) | > 100 µM (inactive) | > 100 µM (inactive) | > 100 µM (inactive) | – | > 100 µM (inactive) | > 100 µM (inactive) | > 100 µM (inactive) | > 100 µM (inactive) | – | > 100 µM (inactive) | > 100 µM (inactive) | –
O=C1Cc2ccccc2CCc2ccccc21 | > 100 µM (inactive) | > 100 µM (inactive) | > 100 µM (inactive) | > 100 µM (inactive) | > 100 µM (inactive) | 74.6 µM (inactive) | > 100 µM (inactive) | 82.4 µM (inactive) | > 100 µM (inactive) | > 100 µM (inactive) | > 100 µM (inactive) | 81.8 µM (inactive) | > 100 µM (inactive) | 83 µM (inactive) | > 100 µM (inactive) | – | > 100 µM (inactive) | > 100 µM (inactive) | –
COc1ccc(/C=N/NC(=O)c2cnc3[nH]c(=O)n(C)c(=O)c3c2)cc1 | – | > 100 µM (inactive) | 34.1 µM (inactive) | > 100 µM (inactive) | > 100 µM (inactive) | > 100 µM (inactive) | – | > 100 µM (inactive) | 36.7 µM (inactive) | – | 94.8 µM (inactive) | 13.1 µM (inactive) | 44 µM (inactive) | 46.3 µM (inactive) | 44.3 µM (inactive) | > 100 µM (inactive) | 34.9 µM (inactive) | > 100 µM (inactive) | > 100 µM (inactive)
N#CCC(=O)c1cc(OCc2cc(OCc3ccc(Br)cc3)cc(OCc3ccc(Br)cc3)c2)cc(OCc2cc(OCc3ccc(Br)cc3)cc(OCc3ccc(Br)cc3)c2)c1 | – | > 100 µM (inactive) | > 100 µM (inactive) | > 100 µM (inactive) | > 100 µM (inactive) | > 100 µM (inactive) | – | > 100 µM (inactive) | > 100 µM (inactive) | – | > 100 µM (inactive) | > 100 µM (inactive) | > 100 µM (inactive) | > 100 µM (inactive) | > 100 µM (inactive) | > 100 µM (inactive) | – | > 100 µM (inactive) | > 100 µM (inactive)
CCOC(=O)c1nc2ccc(C(F)(F)F)cc2nc1Oc1cc(OC)cc(OC)c1 | – | > 100 µM (inactive) | 68.9 µM (inactive) | > 100 µM (inactive) | > 100 µM (inactive) | – | > 100 µM (inactive) | > 100 µM (inactive) | 87.9 µM (inactive) | > 100 µM (inactive) | – | 21.4 µM (inactive) | > 100 µM (inactive) | 78.3 µM (inactive) | 65.6 µM (inactive) | > 100 µM (inactive) | 41.7 µM (inactive) | – | > 100 µM (inactive)
COc1ccc(OC)c2cc(Cc3ccc(N(C)C)cc3)c(=O)c(Cc3ccc(N(C)C)cc3)cc12 | – | > 100 µM (inactive) | 75.5 µM (inactive) | > 100 µM (inactive) | > 100 µM (inactive) | > 100 µM (inactive) | – | 22.4 µM (inactive) | 53.2 µM (inactive) | – | 61 µM (inactive) | 40.4 µM (inactive) | > 100 µM (inactive) | > 100 µM (inactive) | 58.6 µM (inactive) | > 100 µM (inactive) | 45.7 µM (inactive) | > 100 µM (inactive) | > 100 µM (inactive)
NC(=O)CCC(NC(=O)Cc1ccccc1)C(=O)O (stereo not drawn) | > 2470 µM (inactive) | > 2470 µM (inactive) | > 2470 µM (inactive) | 1160 µM (inactive) | > 2470 µM (inactive) | > 2470 µM (inactive) | – | 1030 µM (inactive) | 2000 µM (inactive) | > 2470 µM (inactive) | 1280 µM (inactive) | 724 µM (inactive) | – | 1740 µM (inactive) | 1700 µM (inactive) | – | 1610 µM (inactive) | > 2470 µM (inactive) | –
CC1=C([S+]([O-])c2ccc(C)cc2)CCC2(CCCCO2)O1 (stereo not drawn) | – | > 100 µM (inactive) | > 100 µM (inactive) | > 100 µM (inactive) | > 100 µM (inactive) | > 100 µM (inactive) | > 100 µM (inactive) | 66.5 µM (inactive) | > 100 µM (inactive) | 23.3 µM (inactive) | > 100 µM (inactive) | > 100 µM (inactive) | > 100 µM (inactive) | > 100 µM (inactive) | > 100 µM (inactive) | – | > 100 µM (inactive) | > 100 µM (inactive) | > 100 µM (inactive)
N#CC(/N=N/c1ccccc1C(=O)O)C(N)=O (stereo not drawn) | > 100 µM (inactive) | – | > 100 µM (inactive) | > 100 µM (inactive) | > 100 µM (inactive) | > 100 µM (inactive) | – | > 100 µM (inactive) | > 100 µM (inactive) | > 100 µM (inactive) | > 100 µM (inactive) | 60.3 µM (inactive) | 68.7 µM (inactive) | > 100 µM (inactive) | > 100 µM (inactive) | > 100 µM (inactive) | – | – | –
O=C(c1nc2ccccc2nc1O)C(O)c1ccccc1 (stereo not drawn) | 86.1 µM (inactive) | > 100 µM (inactive) | > 100 µM (inactive) | 29.8 µM (inactive) | > 100 µM (inactive) | > 100 µM (inactive) | 39.5 µM (inactive) | 53.5 µM (inactive) | 43.7 µM (inactive) | 61.7 µM (inactive) | > 100 µM (inactive) | – | 44.6 µM (inactive) | > 100 µM (inactive) | > 100 µM (inactive) | – | > 100 µM (inactive) | 53.7 µM (inactive) | –
CC1(C)C2CC(=O)C1(C)C(O)C2Br (stereo not drawn) | – | – | > 100 µM (inactive) | > 100 µM (inactive) | > 100 µM (inactive) | > 100 µM (inactive) | – | – | > 100 µM (inactive) | > 100 µM (inactive) | – | – | > 100 µM (inactive) | > 100 µM (inactive) | > 100 µM (inactive) | > 100 µM (inactive) | > 100 µM (inactive) | > 100 µM (inactive) | > 100 µM (inactive)
Cc1ccc(/C=C/C(=O)c2sc(-c3nc(C)c(C(=O)/C=C/c4ccc(C)cc4)s3)nc2C)cc1 | – | > 100 µM (inactive) | – | > 100 µM (inactive) | > 100 µM (inactive) | > 100 µM (inactive) | > 100 µM (inactive) | > 100 µM (inactive) | > 100 µM (inactive) | > 100 µM (inactive) | > 100 µM (inactive) | 86.5 µM (inactive) | > 100 µM (inactive) | > 100 µM (inactive) | > 100 µM (inactive) | – | > 100 µM (inactive) | > 100 µM (inactive) | –
CC(C)(C)c1ccc2c(c1)C#Cc1cc(C(C)(C)C)ccc1OCCCO2 | – | > 100 µM (inactive) | > 100 µM (inactive) | > 100 µM (inactive) | > 100 µM (inactive) | > 100 µM (inactive) | > 100 µM (inactive) | > 100 µM (inactive) | > 100 µM (inactive) | > 100 µM (inactive) | > 100 µM (inactive) | – | > 100 µM (inactive) | > 100 µM (inactive) | > 100 µM (inactive) | > 100 µM (inactive) | > 100 µM (inactive) | – | > 100 µM (inactive)
CCOP12(OCC)NC(=O)OC1(C(F)(F)F)c1ccccc1O2 (stereo not drawn) | – | – | > 100 µM (inactive) | > 100 µM (inactive) | – | > 100 µM (inactive) | > 100 µM (inactive) | – | – | > 100 µM (inactive) | – | 82.8 µM (inactive) | > 100 µM (inactive) | > 100 µM (inactive) | – | – | > 100 µM (inactive) | – | –
CCOC(=O)Cc1csc(N/C=C2/C(=O)Oc3ccccc3C2=O)n1 | 14.3 µM (inactive) | 44.7 µM (inactive) | 24.2 µM (inactive) | 25.1 µM (inactive) | 37.4 µM (inactive) | 22.8 µM (inactive) | 25.6 µM (inactive) | 18.6 µM (inactive) | 20 µM (inactive) | 0.083 µM (active) | 26.2 µM (inactive) | 10.9 µM (inactive) | 12 µM (inactive) | 20.9 µM (inactive) | 20.9 µM (inactive) | – | 19.1 µM (inactive) | – | 40.8 µM (inactive)
C[N+](C)(C)/C=N\c1cccc2nsnc12 | – | > 100 µM (inactive) | > 100 µM (inactive) | > 100 µM (inactive) | > 100 µM (inactive) | > 100 µM (inactive) | > 100 µM (inactive) | > 100 µM (inactive) | > 100 µM (inactive) | > 100 µM (inactive) | > 100 µM (inactive) | > 100 µM (inactive) | > 100 µM (inactive) | > 100 µM (inactive) | > 100 µM (inactive) | > 100 µM (inactive) | > 100 µM (inactive) | – | > 100 µM (inactive)
CCN(CC)CCNc1ccc(/N=N/c2ccc(S(N)(=O)=O)cc2)c2ccccc12 | 2.1 µM (inactive) | 4.24 µM (inactive) | 11.9 µM (inactive) | 11.5 µM (inactive) | 23 µM (inactive) | 23.2 µM (inactive) | 2.65 µM (inactive) | 3.37 µM (inactive) | 4.61 µM (inactive) | 14.5 µM (inactive) | 13.7 µM (inactive) | 10.3 µM (inactive) | 13 µM (inactive) | 4.3 µM (inactive) | 6.73 µM (inactive) | – | 13.1 µM (inactive) | 8.75 µM (inactive) | 6.73 µM (inactive)
